Converted amounts (≈) assume the structure as drawn.
Assays:
[1] = medium with a pH lower than 3
histamine-H2 receptor = conditions: well known; cited from earlier work
[2] = for Compaction ratio: with / without compaction; for Bulk density with compaction: hand-vibrator for 5 minutes
[3] = 10 mg in 100 ml distilled water
Method: The investigation was made as follows: 10-10 mg of the form to be tested were weighed into 100 ml of distilled water, under stirring. At appropriate times samples were taken from the system, and after filtration and appropriate dilution the amount of dissolved famotidine was determined by ultraviolet spectrophotometry.

[4] = for Deformity ratio: ratio of longitudinal axis and greatest diameter, average of 250 grains
Method: (G) The Deformity Ratio of the Crystals
Deformity ratio means the ratio of the longitudinal axis and greatest diameter of the crystal.
The data were determined from the measurement of 250-250 grains by averaging.

physchem = conditions: for solubility at 5 h: distilled water, water, Saturation solubility, 5 hours stirring, UV at 277 nm
Method: The investigation was made as follows: the different forms were stirred in distilled water for 5 hours, and the concentration of the material in solution was determined by ultraviolet spectroscopy at 277 nm wavelength.

[5] = form "A" vs form "B"
[6] = for Rolling angle (basic angle of the cone): funnel with tube of 5 mm diameter, opening 10 cm above the level of the material
Method: The data given here were measured according to the following scheme:
The form to be tested was filled into a funnel provided with a tube of 5 mm diameter, then the funnel was set into a position so that its opening was 10 cm above the level of the material.

[7] = for Electrostatic charging: amount of stuck material after knocking / Electrostatic charging: amount of stuck material without knocking: 37 g in glass dish of 120 mm, 1 minute rubbing; for Electrostatic charging: amount of stuck material after knocking: dish knocked 10 times
Method: (J) Electrostatic Charging
As there is no simple procedure to be carried out in an organic chemistry laboratory, the data presented below were measured as follows: Into a glass dish of 120 mm diameter 37 g of one of the forms were transferred and then the sample was stirred for 1 minute with rubbing with a flattened end glass-rod. Following this, the content of the dish was poured out without shaking, and the amount of stuck material was measured on a balance. Then the measurement was repeated so that the dish was knocked 10 times.

[8] = 95:5 mixtures, water, 24 hours at 60° C.
Method: (I) Thermodynamic Stability
The test was made as follows: a mixture of the different forms in a ratio of 95:5 for both derivatives contaminated with the other polymorph was prepared, then the system was stirred with a magnetic stirrer for 24 hours at 60° C. so that water only covered the crystals. The crystals were then filtered and morphologically studied.

| Compaction ratio [2] | Bulk density with compaction [2] [g/L] | Bulk density without compaction [2] [g/L] | Dynamic solubility at 2 min [3] [µg/mL] | Dynamic solubility at 5 min [3] [µg/mL] | Dynamic solubility at 10 min [3] [µg/mL] | Dynamic solubility at 1 hour [3] [µg/mL] | Deformity ratio [4] | Rolling angle (basic angle of the cone) [6] | Electrostatic charging: amount of stuck material after knocking [7] [g] | Electrostatic charging: amount of stuck material without knocking [7] [g] | Thermodynamic stability [8] | Structure (SMILES) | also measured |
| --- | --- | --- | --- | --- | --- | --- | --- | --- | --- | --- | --- | --- | --- |
|  |  |  |  |  |  |  |  |  |  |  |  | N=C(N)Nc1nc(CSCCC(=N)NS(N)(=O)=O)cs1 [Famotidine, N-sulfamoyl-3-(2-guanidino-thiazole-4-yl-methylthio)-propionamidine] | Hydrolysis of the amidino group [1]: highly capable of hydrolysis; histamine-H2 receptor blocking effect (histamine-H2 receptor): excellent |
| 1.38 | 960 | 695 | 19 | 25 | 42 | 72 | 1.40 | 41-42 ° | 0.5 | 2.8 | stabile | NC(N)=Nc1nc(CSCCC(N)=NS(N)(=O)=O)cs1 [Form "A", N-sulfamoyl-3-(2-guanidino-thiazole-4-yl-methylthio)-propionamidine] | solubility at 5 h (physchem): 860 µg/mL (≈ 2550 µM); Handling and stability, comparison in words [5]: unambiguously more advantageous |
| 1.47 | 505 | 340 | 25 | 40 | 51 | 76 | 4.70 | more than 55 ° | 10.0 | 13 | metastabile | NC(N)=Nc1nc(CSCCC(N)=NS(N)(=O)=O)cs1 [Form "B", N-sulfamoyl-3-(2-guanidino-thiazole-4-yl-methylthio)-propionamidine] | Deformity ratio, times higher than form "A" ([4]; form "B" vs form "A"): 3.3 times; solubility at 5 h (physchem; unit given as mg): 980 µg/mL (≈ 2900 µM); Saturation solubility, comparison in words (physchem; form "B" vs form "A"): significantly higher; Slope of piled up sample at the beginning ([6]; rolling angle test, footnote x, correct rolling angle not measurable): 80-85 °; Electrostatic charging: amount attracted, times more than form "A" ([7]; form "B" vs form "A"): 20 times |
